For five compounds, IC50 and inhibition in vivo results are on record in patent publication US9012446B2, “Amino-oxazines and amino-dihydrothiazine compounds as beta-secretase modulators and methods of use” (Amgen Inc., priority 2010, dated 2015).

Where two headings read alike, the source gives them in different places.

For one experiment, the system named is Aβ40. The experiment in a line: In vitro BACE cell-based assay (Aβ40 sandwich ELISA, cells stably expressing APP). The settings on record: Homo sapiens, HEK293, average IC50; read-out: HEK cell assay. The method in brief:
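Read-out is Aβ40 in cell supernatants, quantified by sandwich ELISA (capture 3 h, detection 2 h, both 4° C) with Delfia time-resolved fluorescence. Cells stably expressing APP were dosed across 10 concentrations from 100 μM or 10 μM top, 0.1% DMSO final; IC50 fitted from percent of control.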
On the technique in general: An ELISA detects its analyte on a solid surface through an enzyme-linked reagent.

The target of the next experiment is BACE (Homo sapiens, UniProt P56817). The experiment in a line: In vitro enzymatic BACE FRET assay. The format is biochemical. To be noted: average IC50, enzyme assay; read-out: BACE 1 FRET assay. The procedure, abridged:
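Fluorescence […] after Tris quench reports cleavage of a 50 nM quenched peptide substrate over 1 h. Beforehand, 0.2 nM enzyme sits 1 h with inhibitor dilutions. Buffer: 0.05 M acetate pH 4.2, 100 uM genapol, 10% DMSO final.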

The next experiment deals with Abeta 40. The experiment in a line: In vivo inhibition of beta-secretase: Abeta 40 reduction in CSF and brain of the rat. The settings on record: 10 mpk, after 4 hrs. The procedure, abridged: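 Male Sprague Dawley rats (200 g) were given test compound by oral gavage in 2% HPMC, 1% Tween80, pH 2.2, while a vehicle-only group served as control. After sacrifice, brains were homogenized in 0.2% DEA/50 mM NaCl or 0.5% TritonX-100 in Tris-buffered saline and centrifuged at 355,000 g, 4° C. for 30 minutes. Abeta40 in CSF and brain supernatants was quantified by ECL sandwich ELISA (biotinylated-4G8 capture, Fab40 detection) as percent reduction versus vehicle.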

The mark [1] stands for this setting: Abeta 40, rat CSF, read-out: % reduction of rat CSF levels at 10 pmk.
Setting [2] is: Abeta 40, rat brain, read-out: % reduction of rat brain levels at 10 mpk.

BACE, sequence (P56817 46-501, species assumed): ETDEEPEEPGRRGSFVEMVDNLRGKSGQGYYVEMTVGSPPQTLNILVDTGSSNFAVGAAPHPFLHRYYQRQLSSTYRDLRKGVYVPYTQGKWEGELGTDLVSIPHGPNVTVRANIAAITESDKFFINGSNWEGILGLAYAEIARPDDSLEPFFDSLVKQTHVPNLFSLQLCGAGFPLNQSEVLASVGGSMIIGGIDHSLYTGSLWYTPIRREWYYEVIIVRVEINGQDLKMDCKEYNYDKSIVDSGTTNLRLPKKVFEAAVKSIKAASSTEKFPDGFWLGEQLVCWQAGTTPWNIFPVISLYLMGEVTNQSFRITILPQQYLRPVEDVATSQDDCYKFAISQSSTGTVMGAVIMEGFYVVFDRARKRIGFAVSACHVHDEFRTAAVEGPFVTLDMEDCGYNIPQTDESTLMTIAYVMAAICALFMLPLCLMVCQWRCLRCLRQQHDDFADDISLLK

On to `NC1=N[C@@]2(CCO1)c1cc(-c3cccnc3)ccc1Oc1c2cc(-c2ccnc(F)c2)nc1F` [Example 239, (S)-1-fluoro-3-(2-fluoropyridin-4-yl)-7-(pyridin-3-yl)-5′,6′-dihydrospiro[chromeno[2,3-c]pyridine-5,4′-[1,3]oxazin]-2′-amine], for which the IC50 was determined as 16.1 nM with Aβ40 and 35 nM on BACE. Also, the inhibition in vivo at 10 mg/kg in the experiment with Abeta 40 (setting [1]) was 68%; in the experiment with Abeta 40 (setting [2]) it was 48%.
With `Cc1cc(-c2cc3c(c(F)n2)Oc2ccc(-c4cccnc4F)cc2[C@@]32COCC(N)=N2)ccn1` [Example 248, (S)-1-fluoro-7-(2-fluoropyridin-3-yl)-3-(2-methylpyridin-4-yl)-2′,6′-dihydrospiro[chromeno[2,3-c]pyridine-5,3′-[1,4]oxazin]-5′-amine], the IC50 in the experiment with Aβ40 was 0.7 nM; on BACE it was 0.6 nM. Further, the inhibition in vivo at 10 mg/kg in the experiment on Abeta 40 (setting [1]) was 53%; in the experiment with Abeta 40 (setting [2]), 39%.
The matching figures for `NC1=N[C@@]2(COC1)c1cc(-c3cccnc3F)ccc1Oc1c2cc(C2=CCCOC2)nc1F` [Example 249, (S)-3-(5,6-dihydro-2H-pyran-3-yl)-1-fluoro-7-(2-fluoropyridin-3-yl)-2′,6′-dihydrospiro[chromeno[2,3-c]pyridine-5,3′-[1,4]oxazin]-5′-amine]: 0.4 nM, 0.4 nM, 72% and 59%.
As for `CC(C)(C)COc1cc2c(c(F)n1)Oc1ccc(-c3cccnc3F)cc1[C@@]21COCC(N)=N1` [Example 250, (5S)-3-(2,2-dimethylpropoxy)-1-fluoro-7-(2-fluoro-3-pyridinyl)-6′H-Spiro[chromeno[2,3-c]pyridine-5,3′-[1,4]oxazin]-5′-amine], the IC50 with Aβ40 came out at 2.8 nM; on BACE, 0.6 nM. In addition, the inhibition in vivo at 10 mg/kg with Abeta 40 (setting [1]) and with Abeta 40 (setting [2]) was 72% each time.
For `CC(C)(C)C#Cc1cnc2c(c1)[C@]1(CCOC(N)=N1)c1cc(-c3cccnc3F)ccc1O2` [Example 270, (S)-3-(3,3-dimethylbut-1-ynyl)-7-(2-fluoropyridin-3-yl)-5′,6′-dihydrospiro[chromeno[2,3-b]pyridine-5,4′-[1,3]oxazin]-2′-amine], the IC50 in the experiment on Aβ40 stood at 4.9 nM; at BACE, 3.1 nM. Besides, the inhibition in vivo at 10 mg/kg was 70% in the experiment on Abeta 40 (setting [1]) and 52% with Abeta 40 (setting [2]).
